These are literature values, as cited in patent US10446758B2, “Hole transporting material, OLED display panel and electronic device comprising the same” (SHANGHAI TIANMA AM-OLED CO., LTD., priority 2016, dated 2019).

For the series the following is noted: prior art material, background statement.

For `CC1(C)c2ccccc2-c2ccc(N(c3ccc4c(c3)C3(c5ccccc5-c5ccccc53)c3ccccc3-4)c3ccccc3-c3ccccc3)cc21`, the “solubility (in words)” value was “good”.
